Data from patent US6737383B1, “Herbicidal oxadiazolidines” (priority 1999, dated 2004).

Key:
[1] = test system: surinam grass; assay: Test B pre/postemergence surinam grass; type: in vivo, Brachiaria decumbens
How it was run: (§1)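 Test chemicals in a non-phytotoxic solvent mixture with surfactant were sprayed preemergence onto planted seeds and postemergence onto plants 2 to 18 cm tall (1- to 4-leaf stage). After twelve to sixteen days in a greenhouse, injury was visually rated against untreated controls from 0 (no effect) to 10 (complete control).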

[2] = test system: cocklebur; assay: Test B pre/postemergence cocklebur; type: in vivo, Xanthium strumarium
How it was run: as §1

[3] = test system: corn; assay: Test B pre/postemergence corn; type: in vivo, Zea mays
How it was run: as §1

[4] = test system: crabgrass; assay: Test B pre/postemergence crabgrass; type: in vivo, Digitaria sanguinalis
How it was run: as §1

[5] = test system: winter wheat; assay: Test E winter wheat; type: in vivo, Triticum aestivum; conditions: Postemergence
How it was run: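 Each compound, carried in a non-phytotoxic solvent blend including surfactant, was applied (postemergence: over the top of young plants at 1- to 4-leaf stage). Plants stayed in the greenhouse about 21 to 28 days before visual comparison with untreated controls.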

[6] = test system: blackgrass; assay: Test E blackgrass; type: in vivo, Alopecurus myosuroides; conditions: Preemergence; for Blackgrass plant response rating (0 to 100 scale): Rate 250 g/ha
[7] = test system: green foxtail; assay: Test E green foxtail; type: in vivo, Setaria viridis; conditions: Preemergence; for Green foxtail plant response rating (0 to 100 scale): Rate 250 g/ha
[8] = test system: Italian ryegrass; assay: Test E Italian ryegrass; type: in vivo, Lolium multiflorum; conditions: Preemergence; for I. Ryegrass plant response rating (0 to 100 scale): Rate 250 g/ha
[9] = test system: winter wheat; assay: Test E winter wheat; type: in vivo, Triticum aestivum; conditions: Preemergence; for Wheat (winter) plant response rating (0 to 100 scale): Rate 250 g/ha
[10] = test system: wild oat; assay: Test E wild oat; type: in vivo, Avena fatua; conditions: Preemergence; for Wild oat plant response rating (0 to 100 scale): Rate 250 g/ha
[11] = test system: winter barley; assay: Test E winter barley; type: in vivo, Hordeum vulgare; conditions: Preemergence; for Barley (winter) plant response rating (0 to 100 scale): Rate 250 g/ha
[12] = Preemergence, Rate 62 g/ha, scale of 0 to 10 where 0 is no effect and 10 is complete control
[13] = Preemergence, Rate 125 g/ha, 0 is no effect, 10 is complete control
[14] = Preemergence, Rate 250 g/ha, scale 0 to 10, 0 is no effect, 10 is complete control
[15] = Preemergence, Rate 500 g/ha, scale of 0 to 10 where 0 is no effect and 10 is complete control
[16] = Rate 62 g/ha, Postemergence, scale of 0 to 10 where 0 is no effect and 10 is complete control
[17] = Rate 125 g/ha, Postemergence, scale 0 (no effect) to 10 (complete control)
[18] = Rate 500 g/ha, Postemergence, scale 0 to 10, 0 no effect, 10 complete control
[19] = Rate 125 g/ha, Postemergence, scale 0 to 10
[20] = Rate 500 g/ha, Postemergence, scale 0 to 10
[21] = Rate 500 g/ha, 0 to 100 scale, 0 is no effect, 100 is complete control
[22] = Rate 500 g/ha, 0 to 100 scale where 0 is no effect and 100 is complete control
[23] = Rate 1000 g/ha, 0 to 100 scale where 0 is no effect and 100 is complete control
[24] = Rate 125 g/ha, Preemergence, scale of 0 to 10 where 0 is no effect and 10 is complete control
[25] = Preemergence, Rate 250 g/ha, scale of 0 to 10 where 0 is no effect and 10 is complete control
[26] = Rate 1000 g/ha, 0 to 100 scale, 0 no effect, 100 complete control

CC(C)N(C(=O)n1oc(=O)n(-c2ccc(OC(F)(F)F)cc2)c1=O)c1ccc(F)cc1 [Compound 202]
B. signalgrass plant response rating [1, 12]: 0
B. signalgrass plant response rating (0 to 10 scale) [1, 13]: 0
B. signalgrass plant response rating [1, 14]: 0
Plant response rating, B. signalgrass [1, 15]: 0
B. signalgrass plant response rating [1, 16]: 0
B. signalgrass plant response rating [1, 17]: 0
Plant response rating, B. signalgrass ([1]; Rate 250 g/ha, Postemergence, scale 0 to 10, 0 is no effect, 10 is complete control): 0
B. signalgrass plant response rating [1, 18]: 0
Cocklebur plant response rating [2, 12]: 0
Cocklebur plant response rating (0 to 10 scale) [2, 13]: 0
Cocklebur plant response rating [2, 14]: 0
Plant response rating, Cocklebur [2, 15]: 0
Cocklebur plant response rating [2, 16]: 0
Cocklebur plant response rating [2, 19]: 0
Plant response rating (0 to 10; 0 is no effect, 10 is complete control), Cocklebur ([2]; Rate 250 g/ha, Postemergence): 2
Cocklebur plant response rating [2, 20]: 2
Corn plant response rating [3, 12]: 0
Corn plant response rating (0 to 10 scale) [3, 13]: 0
Corn plant response rating [3, 14]: 0
Plant response rating, Corn [3, 15]: 0
Corn plant response rating [3, 16]: 0
Corn plant response rating [3, 19]: 0
Plant response rating (0 to 10; 0 is no effect, 10 is complete control), Corn ([3]; Rate 250 g/ha, Postemergence): 0
Corn plant response rating [3, 20]: 0
Crabgrass plant response rating [4, 12]: 3
Crabgrass plant response rating (0 to 10 scale) [4, 13]: 4
Crabgrass plant response rating [4, 14]: 6
Plant response rating, Crabgrass [4, 15]: 9
Crabgrass plant response rating [4, 16]: 0
Crabgrass plant response rating [4, 19]: 0
Plant response rating (0 to 10; 0 is no effect, 10 is complete control), Crabgrass ([4]; Rate 250 g/ha, Postemergence): 1
Crabgrass plant response rating [4, 20]: 4
Plant response rating, Wheat (winter) ([5]; Rate 1000 g/ha, 0 to 100 scale, 0 is no effect and 100 is complete control): 60
Plant response rating, Wheat (winter) [5, 21]: 55
Blackgrass plant response rating (0 to 100 scale) [6]: 30
Plant response rating, Blackgrass [6, 22]: 50
Plant response rating, Blackgrass [6, 23]: 30
Green foxtail plant response rating (0 to 100 scale) [7]: 70
Plant response rating, Green foxtail [7, 22]: 85
Plant response rating, Green foxtail [7, 23]: 100
I. Ryegrass plant response rating (0 to 100 scale) [8]: 30
Plant response rating, I. Ryegrass [8, 22]: 60
Plant response rating, I. Ryegrass [8, 23]: 60
Wheat (winter) plant response rating (0 to 100 scale) [9]: 50
Plant response rating, Wheat (winter) [9, 22]: 40
Plant response rating, Wheat (winter) [9, 23]: 70
Wild oat plant response rating (0 to 100 scale) [10]: 50
Plant response rating, Wild oat [10, 22]: 60
Plant response rating, Wild oat [10, 23]: 80
Barley (winter) plant response rating (0 to 100 scale) [11]: 20
Plant response rating, Barley (winter) [11, 22]: 40
Plant response rating, Barley (winter) [11, 23]: 70

Cc1ccccc1N(C(=O)n1oc(=O)n(-c2ccccc2C)c1=O)C(C)C [Compound 236]
B. signalgrass plant response rating [1, 12]: 0
B. signalgrass plant response rating [1, 14]: 0
Plant response rating, B. signalgrass [1, 15]: 3
B. signalgrass plant response rating [1, 16]: 0
B. signalgrass plant response rating [1, 17]: 0
B. signalgrass plant response rating [1, 24]: 0
Plant response rating (0 to 10; 0 is no effect, 10 is complete control), B. signalgrass ([1]; Rate 250 g/ha, Postemergence): 0
B. signalgrass plant response rating [1, 18]: 0
Cocklebur plant response rating [2, 12]: 0
Cocklebur plant response rating [2, 25]: 0
Plant response rating, Cocklebur [2, 15]: 0
Cocklebur plant response rating [2, 16]: 0
Cocklebur plant response rating [2, 19]: 0
Cocklebur plant response rating [2, 24]: 0
Plant response rating (0 to 10; 0 is no effect, 10 is complete control), Cocklebur ([2]; Rate 250 g/ha, Postemergence): 0
Cocklebur plant response rating [2, 18]: 0
Corn plant response rating [3, 12]: 0
Corn plant response rating [3, 25]: 0
Plant response rating, Corn [3, 15]: 0
Corn plant response rating [3, 16]: 0
Corn plant response rating [3, 19]: 0
Corn plant response rating [3, 24]: 0
Plant response rating (0 to 10; 0 is no effect, 10 is complete control), Corn ([3]; Rate 250 g/ha, Postemergence): 0
Corn plant response rating [3, 18]: 0
Crabgrass plant response rating [4, 12]: 2
Crabgrass plant response rating [4, 25]: 5
Plant response rating, Crabgrass [4, 15]: 5
Crabgrass plant response rating [4, 16]: 0
Crabgrass plant response rating [4, 19]: 0
Crabgrass plant response rating [4, 24]: 3
Plant response rating (0 to 10; 0 is no effect, 10 is complete control), Crabgrass ([4]; Rate 250 g/ha, Postemergence): 0
Crabgrass plant response rating [4, 18]: 0
Plant response rating, Wheat (winter) [5, 23]: 10
Wheat (winter) plant response rating ([5]; Rate 250 g/ha, 0 to 100 scale where 0 is no effect and 100 is complete control): 0
Plant response rating, Wheat (winter) [5, 21]: 0
Blackgrass plant response rating (0 to 100 scale) [6]: 60
Plant response rating, Blackgrass [6, 22]: 60
Plant response rating, Blackgrass [6, 26]: 70
Green foxtail plant response rating (0 to 100 scale) [7]: 85
Plant response rating, Green foxtail [7, 22]: 100
Plant response rating, Green foxtail [7, 26]: 100
I. Ryegrass plant response rating (0 to 100 scale) [8]: 20
Plant response rating, I. Ryegrass [8, 22]: 40
Plant response rating, I. Ryegrass [8, 26]: 55
Wheat (winter) plant response rating (0 to 100 scale) [9]: 0
Plant response rating, Wheat (winter) [9, 22]: 10
Plant response rating, Wheat (winter) [9, 26]: 20
Wild oat plant response rating (0 to 100 scale) [10]: 20
Plant response rating, Wild oat [10, 22]: 30
Plant response rating, Wild oat [10, 26]: 50
Barley (winter) plant response rating (0 to 100 scale) [11]: 20
Plant response rating, Barley (winter) [11, 22]: 40
Plant response rating, Barley (winter) [11, 26]: 50
